Results as given in patent publication US8952024B2, “Herbicidal pyrimidone derivatives” (E I du Pont de Nemours and Company, priority 2009, dated 2015).
Read-outs that look alike come from different tables or passages of the source.

Assays:
Format in all cases: in vivo
rice (Oryza sativa) = test: Test B flooded paddy test; conditions: Oryza sativa
In short: (§1)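 Each compound is added to standing floodwater (3 cm above soil, maintained) in pots of 2-leaf-stage plants; greenhouse exposure lasts 13–15 d before visual comparison with controls on a 0–100 control scale.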

[1] = test system: ducksalad (Heteranthera limosa); test: Test B flooded paddy test; conditions: Heteranthera limosa, 360 h
In short: as §1

[2] = test system: umbrella sedge (Cyperus difformis); test: Test B flooded paddy test; conditions: Cyperus difformis, 360 h
In short: as §1

[3] = test system: barnyardgrass (Echinochloa crus-galli); test: Test B flooded paddy test; conditions: Echinochloa crus-galli, 360 h
In short: as §1

[4] = test system: giant foxtail (Setaria faberii); test: Test A pre-/postemergence plant response; conditions: Setaria faberi, 240 h; for pest or weed control at 125 g/ha: 125 g ai/ha; for pest or weed control at 500 g/ha: 500 g ai/ha
In short: (§2)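 Approximately ten days after concurrent pre- and postemergence spraying in a greenhouse, plants were compared with untreated controls and rated visually for injury, 0 = no effect to 100 = complete control. Preemergence spray was directed onto loam/sand soil; postemergence targeted 1–2 leaf seedlings.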

[5] = test system: barnyardgrass (Echinochloa crus-galli); test: Test A pre-/postemergence plant response; conditions: Echinochloa crus-galli, 240 h; for pest or weed control at 125 g/ha: 125 g ai/ha; for pest or weed control at 500 g/ha: 500 g ai/ha
In short: as §2

corn (Zea mays) = test: Test A pre-/postemergence plant response; conditions: Zea mays, 240 h; for Corn plant response rating (crop injury, 0 = no effect, 100 = complete kill) at 500 g/ha: 500 g ai/ha
In short: as §2

[6] = test system: morningglory (Ipomoea spp.); test: Test A pre-/postemergence plant response; conditions: Ipomoea, 240 h; for pest or weed control at 125 g/ha: 125 g ai/ha; for pest or weed control at 500 g/ha: 500 g ai/ha
In short: as §2

[7] = test system: velvetleaf (Abutilon theophrasti); test: Test A pre-/postemergence plant response; conditions: Abutilon theophrasti, 240 h; for pest or weed control at 125 g/ha: 125 g ai/ha; for pest or weed control at 500 g/ha: 500 g ai/ha
In short: as §2

[8] = test system: wheat (Triticum aestivum); test: Test A pre-/postemergence plant response; conditions: Triticum aestivum, 240 h; for plant injury at 125 g/ha: 125 g ai/ha; for plant injury at 500 g/ha: 500 g ai/ha
In short: as §2

[9] = test system: pigweed (Amaranthus retroflexus); test: Test A pre-/postemergence plant response; conditions: Amaranthus retroflexus, 240 h; for pest or weed control at 125 g/ha: 125 g ai/ha
In short: as §2

[10] = test system: large crabgrass (Digitaria sanguinalis); test: Test A pre-/postemergence plant response; conditions: Digitaria sanguinalis, 240 h; for pest or weed control at 125 g/ha: 125 g ai/ha; for pest or weed control at 500 g/ha: 500 g ai/ha
In short: as §2

CCn1ncc(C(=O)c2cnc(-c3ccccc3)n(Cc3ccccc3)c2=O)c1O [Compound 20, 5-[(1-ethyl-5-hydroxy-1H-pyrazol-4-yl)carbonyl]-2-phenyl-3-(phenylmethyl)-4(3H)-pyrimidinone]
30%: pest or weed control at 500 g/ha ([10]; pre-emergence, Preemergence, visual injury, 0 to 100 scale (0 no effect, 100 complete control), approx. ten days, read-out: Plant response rating, Crabgrass, Large)
15%: plant injury at 250 g/ha (rice (Oryza sativa); 250 g ai/ha, flooded paddy test, visual rating on 0 to 100 scale (0 no effect, 100 complete control) after 13 to 15 days, read-out: Plant response rating, Flood, Rice)
40%: pest or weed control at 62 g/ha ([2]; Flood (flooded paddy test), 62 g ai/ha, scale 0 to 100, 0 is no effect, 100 is complete control, 13 to 15 days, read-out: Plant response rating, Sedge, Umbrella)
0%: plant injury at 31 g/ha (rice (Oryza sativa); Flood (flooded paddy test), 31 g ai/ha, scale of 0 to 100 where 0 is no effect and 100 is complete control, 13 to 15 days, read-out: Plant response rating, Rice) | plant injury at 62 g/ha (rice (Oryza sativa); Flood (flooded paddy test), 62 g ai/ha, scale 0 to 100, 0 is no effect, 100 is complete control, 13 to 15 days, read-out: Plant response rating, Rice) | plant injury at 125 g/ha (rice (Oryza sativa); Flood (flooded paddy test), 125 g ai/ha, scale 0 to 100, 0 is no effect, 100 is complete control, 13 to 15 days, read-out: Plant response rating, Rice) | pest or weed control at 31 g/ha ([2]; Flood (flooded paddy test), 31 g ai/ha, scale of 0 to 100 where 0 is no effect and 100 is complete control, 13 to 15 days, read-out: Plant response rating, Sedge, Umbrella) | pest or weed control at 250 g/ha ([3]; 250 g ai/ha, flooded paddy test, visual rating on 0 to 100 scale (0 no effect, 100 complete control) after 13 to 15 days, read-out: Plant response rating, Flood, Barnyardgrass) | pest or weed control at 31 g/ha ([3]; Flood (flooded paddy test), 31 g ai/ha, scale of 0 to 100 where 0 is no effect and 100 is complete control, 13 to 15 days, read-out: Plant response rating, Barnyardgrass) | pest or weed control at 62 g/ha ([3]; Flood (flooded paddy test), 62 g ai/ha, scale 0 to 100, 0 is no effect, 100 is complete control, 13 to 15 days, read-out: Plant response rating, Barnyardgrass) | pest or weed control at 125 g/ha ([3]; Flood (flooded paddy test), 125 g ai/ha, scale 0 to 100, 0 is no effect, 100 is complete control, 13 to 15 days, read-out: Plant response rating, Barnyardgrass) | pest or weed control at 125 g/ha ([4]; post-emergence, Postemergence, visual injury, 0 to 100 scale (0 no effect, 100 complete control), approx. ten days, read-out: Foxtail, Giant plant response rating) | pest or weed control at 500 g/ha ([4]; post-emergence, Postemergence, 0 to 100 scale, 0 = no effect, 100 = complete control, approx. ten days, read-out: Plant response rating, Foxtail, Giant) | pest or weed control at 125 g/ha ([4]; pre-emergence, Preemergence, 0 to 100 scale, 0 = no effect, 100 = complete control, read-out: Plant response rating, Foxtail, Giant) | pest or weed control at 125 g/ha ([5]; post-emergence, Postemergence, visual injury, 0 to 100 scale (0 no effect, 100 complete control), approx. ten days, read-out: Barnyardgrass plant response rating) | pest or weed control at 125 g/ha ([5]; pre-emergence, Preemergence, 0 to 100 scale, 0 = no effect, 100 = complete control, read-out: Plant response rating, Barnyardgrass) | plant injury at 125 g/ha (corn (Zea mays); post-emergence, Postemergence, 125 g ai/ha, visual injury, 0 to 100 scale (0 no effect, 100 complete control), approx. ten days, read-out: Corn plant response rating) | Corn plant response rating (crop injury, 0 = no effect, 100 = complete kill) at 125 g/ha (corn (Zea mays); pre-emergence, Preemergence, 125 g ai/ha, 0 to 100 scale, 0 = no effect, 100 = complete control) | Corn plant response rating (crop injury, 0 = no effect, 100 = complete kill) at 500 g/ha (corn (Zea mays); pre-emergence, Preemergence, visual injury, 0 to 100 scale (0 no effect, 100 complete control), approx. ten days) | pest or weed control at 125 g/ha ([6]; post-emergence, Postemergence, visual injury, 0 to 100 scale (0 no effect, 100 complete control), approx. ten days, read-out: Morningglory plant response rating) | pest or weed control at 125 g/ha ([6]; pre-emergence, Preemergence, 0 to 100 scale, 0 = no effect, 100 = complete control, read-out: Plant response rating, Morningglory) | pest or weed control at 500 g/ha ([6]; pre-emergence, Preemergence, visual injury, 0 to 100 scale (0 no effect, 100 complete control), approx. ten days, read-out: Plant response rating, Morningglory) | pest or weed control at 125 g/ha ([7]; pre-emergence, Preemergence, 0 to 100 scale, 0 = no effect, 100 = complete control, read-out: Plant response rating, Velvetleaf) | plant injury at 125 g/ha ([8]; post-emergence, Postemergence, visual injury, 0 to 100 scale (0 no effect, 100 complete control), approx. ten days, read-out: Wheat plant response rating) | plant injury at 500 g/ha ([8]; post-emergence, Postemergence, 0 to 100 scale, 0 = no effect, 100 = complete control, approx. ten days, read-out: Plant response rating, Wheat) | plant injury at 125 g/ha ([8]; pre-emergence, Preemergence, 0 to 100 scale, 0 = no effect, 100 = complete control, read-out: Plant response rating, Wheat) | plant injury at 500 g/ha ([8]; pre-emergence, Preemergence, visual injury, 0 to 100 scale (0 no effect, 100 complete control), approx. ten days, read-out: Plant response rating, Wheat) | pest or weed control at 125 g/ha ([9]; pre-emergence, Preemergence, 0 to 100 scale, 0 = no effect, 100 = complete control, read-out: Plant response rating, Pigweed) | pest or weed control at 125 g/ha ([10]; post-emergence, Postemergence, visual injury, 0 to 100 scale (0 no effect, 100 complete control), approx. ten days, read-out: Crabgrass, Large plant response rating) | pest or weed control at 125 g/ha ([10]; pre-emergence, Preemergence, 0 to 100 scale, 0 = no effect, 100 = complete control, read-out: Plant response rating, Crabgrass, Large)
10%: pest or weed control at 500 g/ha ([5]; post-emergence, Postemergence, 0 to 100 scale, 0 = no effect, 100 = complete control, approx. ten days, read-out: Plant response rating, Barnyardgrass) | Corn plant response rating (crop injury, 0 = no effect, 100 = complete kill) at 500 g/ha (corn (Zea mays); post-emergence, Postemergence, 0 to 100 scale, 0 = no effect, 100 = complete control, approx. ten days) | pest or weed control at 500 g/ha ([6]; post-emergence, Postemergence, 0 to 100 scale, 0 = no effect, 100 = complete control, approx. ten days, read-out: Plant response rating, Morningglory) | pest or weed control at 125 g/ha ([9]; post-emergence, Postemergence, visual injury, 0 to 100 scale (0 no effect, 100 complete control), approx. ten days, read-out: Pigweed plant response rating) | pest or weed control at 500 g/ha ([10]; post-emergence, Postemergence, 0 to 100 scale, 0 = no effect, 100 = complete control, approx. ten days, read-out: Plant response rating, Crabgrass, Large)
20%: pest or weed control at 500 g/ha ([4]; pre-emergence, Preemergence, visual injury, 0 to 100 scale (0 no effect, 100 complete control), approx. ten days, read-out: Plant response rating, Foxtail, Giant) | pest or weed control at 500 g/ha ([5]; pre-emergence, Preemergence, visual injury, 0 to 100 scale (0 no effect, 100 complete control), approx. ten days, read-out: Plant response rating, Barnyardgrass) | pest or weed control at 125 g/ha ([7]; post-emergence, Postemergence, visual injury, 0 to 100 scale (0 no effect, 100 complete control), approx. ten days, read-out: Velvetleaf plant response rating)
60%: pest or weed control at 31 g/ha ([1]; Flood (flooded paddy test), 31 g ai/ha, scale of 0 to 100 where 0 is no effect and 100 is complete control, 13 to 15 days, read-out: Plant response rating, Ducksalad) | pest or weed control at 62 g/ha ([1]; Flood (flooded paddy test), 62 g ai/ha, scale 0 to 100, 0 is no effect, 100 is complete control, 13 to 15 days, read-out: Plant response rating, Ducksalad) | pest or weed control at 250 g/ha ([2]; 250 g ai/ha, flooded paddy test, visual rating on 0 to 100 scale (0 no effect, 100 complete control) after 13 to 15 days, read-out: Plant response rating, Flood, Sedge, Umbrella)
70%: pest or weed control at 500 g/ha ([7]; post-emergence, Postemergence, 0 to 100 scale, 0 = no effect, 100 = complete control, approx. ten days, read-out: Plant response rating, Velvetleaf)
50%: pest or weed control at 125 g/ha ([2]; Flood (flooded paddy test), 125 g ai/ha, scale 0 to 100, 0 is no effect, 100 is complete control, 13 to 15 days, read-out: Plant response rating, Sedge, Umbrella) | pest or weed control at 500 g/ha ([7]; pre-emergence, Preemergence, visual injury, 0 to 100 scale (0 no effect, 100 complete control), approx. ten days, read-out: Plant response rating, Velvetleaf) | pest or weed control at 500 g/ha ([9]; post-emergence, Postemergence, 500 g ai/ha, 0 to 100 scale, 0 = no effect, 100 = complete control, approx. ten days, read-out: Plant response rating, Pigweed)
65%: pest or weed control at 125 g/ha ([1]; Flood (flooded paddy test), 125 g ai/ha, scale 0 to 100, 0 is no effect, 100 is complete control, 13 to 15 days, read-out: Plant response rating, Ducksalad)
75%: pest or weed control at 250 g/ha ([1]; 250 g ai/ha, flooded paddy test, visual rating on 0 to 100 scale (0 no effect, 100 complete control) after 13 to 15 days, read-out: Plant response rating, Flood, Ducksalad)
